Where a name gives a salt, the structure may show the parent alone. Each block holds one compound with its values, some of them ahead of it.
Tests used:
[1] = BP SND/MAX: blood pressure of chloralose anesthetized cats; type: in vivo; settings: for % BP Control: blood pressure in percent control at the dose causing 50% depression in SND, cats i.v.; for Max. Decr. BP (at SND ED50): maximum reduction in blood pressure as percent of control, 0.001-1.0 mg/kg i.v., cats
Procedure: BP SND/MAX: The blood pressure of the chloralose anesthetized cats in percent control at the dose causing 50% depression in SND and the maximum reduction in blood pressure as percent of the control blood pressure in the same animals observed in the dose range tested (0.001-1.0 mg/kg i.v.).

[2] = system: Sympathetic Nerve Discharge; assay: Sympathetic Nerve Discharge (SND) in chloralose anesthetized cats; type: in vivo; settings: for Max. Decr. SND %: maximum inhibition of sympathetic activity in dose range 0.001-1.0 mg/kg i.v., cats
Procedure: Sympathetic Nerve Discharge (SND): The i.v. mg/kg dose causing a 50% depression in SND in chloralose anesthetized cats and the maximum inhibition of sympathetic activity observed in the dose range tested (0.00 1-1.0 mg/kg i.v. ).

dopamine receptors = settings: background, result in words; cited from earlier work
[3] = some patients; result in words; cited from earlier work
[4] = Chem. Ab., 79: 146294b; cited from earlier work
[5] = target: T1, 5-hydroxytryptamine (5-HT1A) receptor (Bos taurus, UniProt F6Q2H9); assay: Inhibition of 8-OH-DPAT binding in a bovine brain homogenate (5-HT1A binding)
T1 construct: from tissue; host or cells: bovine brain homogenate
T1 sequence (F6Q2H9 1-422): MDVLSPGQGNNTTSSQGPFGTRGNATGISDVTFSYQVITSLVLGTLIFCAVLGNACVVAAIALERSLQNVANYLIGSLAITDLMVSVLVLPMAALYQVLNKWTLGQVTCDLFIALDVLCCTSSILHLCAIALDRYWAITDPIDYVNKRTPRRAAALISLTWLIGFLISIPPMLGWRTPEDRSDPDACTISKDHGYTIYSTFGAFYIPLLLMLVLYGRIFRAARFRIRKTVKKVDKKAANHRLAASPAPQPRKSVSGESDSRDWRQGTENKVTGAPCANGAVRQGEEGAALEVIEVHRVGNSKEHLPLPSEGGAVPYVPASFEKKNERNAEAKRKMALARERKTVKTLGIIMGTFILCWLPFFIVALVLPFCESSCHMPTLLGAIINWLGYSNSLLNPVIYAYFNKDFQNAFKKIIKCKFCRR
From the text: Binding: Inhibition of 8-OH-DPAT binding in a bovine brain homogenate. Potency is given as nM dose required to inhibit 50% of DPAT binding (IC50). This test measures ability to bind to 5-hydroxytryptamine (5-HT1A) receptor.

[6] = Hypothermia in mice (s.c.); type: in vivo; settings: subcutaneous, dose required to depress temperature by 2° C. in two of four mice; for ED50: Mus musculus, sc
Procedure: Hypothermia: Starting with a dose of 30 mg/kg, four mice are injected subcutaneously with test compound. Twenty minutes later, the number of animals whose body temperature has decreased by 2° C. or more are counted. If all four animals reach criteria, the drug is considered "active", and subsequent readings are taken at 60 and 120 minutes after drug. The time for last statistically significant drug affect on mean body temperature is indicated in minutes. […] Potency is given as mg/kg ED50 (dose required to depress temperature in two of four mice) as measured by Spearman-Karber statistics.

5-HT1A receptor [7] = assay: Selectivity, IC50 ratio of dopamine D2 to 5-HT1A in vitro binding; settings: result in words
From the text: (§1) The compounds of this invention where R1 is in 8-position in the aromatic ring are very selective 5-HT1A receptor agonists having generally little or no dopaminergic activity. […] The compound of this invention where R1 is in 5-position in the aromatic ring, on the other hand, have dopaminergic activity with little 5-HT1A agonist activity. […] These compounds are particularly effective anxiolytic and antidepressant agents. Other uses for these compounds include panic attacks, obsessive-compulsive disturbances, and senile dementia particularly the emotional disturbances seen in dementia disorders. In addition, central 5 -HT receptor activation are believed to be involved in mediating sexual behavior. These compounds would be useful to stimulate sexual activity and to alleviate impotence. The compounds of this invention are also useful to alleviate aggressive behavior, confusional delirious states.

dopamine autoreceptors = settings: background, result in words; cited from earlier work
[8] = man, low doses; result in words; cited from earlier work
dopamine = assay: Dopamine activity (evaluation of dopamine and serotonin metabolites); settings: result in words
From the text: as §1

5-HT1A receptor [9] = assay: 5-HT1A agonist activity; settings: result in words
From the text: as §1

[10] = J. Pharm. Sci., 67, 880-82 (1978); cited from earlier work

Compound: C=CCN1CC[C@@H]2c3ccccc3CC[C@@H]21.Cl (racemic) [Example 4 Compound #1, Cis-(+-)-2,3,3a,4,5,9b-hexahydro-3-(2-propenyl)-1H-benz[e]indole hydrochloride]
% BP Control [1]: 76%
Max. Decr. BP (at SND ED50) [1]: 60%
ED50 ([2]; Felis catus, iv, i.v. dose causing 50% depression in SND, chloralose anesthetized cats): 0.09 mg/kg
Max. Decr. SND % [2]: 0.0%

Compound: CC1(C)CC(=O)N(CCCCN2CCN(c3ncccn3)CC2)C(=O)C1 [Gepirone]
dopamine receptor antagonism (dopamine receptors): dopamine antagonist properties
effects on depressive endpoints [3]: ameliorative effects on some depressive endpoints in some patients

Compound: CN(C)C1CCc2ccc(O)cc2C1(C)C (stereo not drawn) [1,1-Dimethyl-2-(N,N-dimethylamino)-7-hydroxytetralin]
analgesic and intestinal movement accelerating actions [4]: analgesic and intestinal movement accelerating actions

IC50 [5]: 14.8 nM
Compound: (+-)-1,2,2a,-3,4,8b-hexahydro-8-methoxy-2-(prop-2-en-1-yl)-naphtho[2, 1-B]azetidine hydrochloride [Example 5 Compound #1]
Hypothermia ED50 [6]: 4.1 mg/kg
% BP Control [1]: 77%
Max. Decr. BP (at SND ED50) [1]: 59%
SND ED50 ([2]; i.v. dose causing 50% depression in SND, chloralose anesthetized cats): 0.083 mg/kg
Max. Decr. SND % [2]: 14.0%

Compound: C=CCN1[C@H](C)C[C@H]2c3c(O)cccc3CC[C@H]21 (relative stereo) [Example 2 Compound #1, (+-)-2α,3,3a,α,4,5,9b,α-hexahydro-2-methyl-3-(2-propenyl)-1H-benz[e]indol-9-ol hydrochloride]
IC50 [5]: 0.96 nM
ED50 [6]: 5.5 mg/kg

Compound: O=C1CC2(CCCC2)CC(=O)N1CCCCN1CCN(c2ncccn2)CC1 [Buspirone]
dopamine receptor antagonism (dopamine receptors): antagonizes dopamine receptors at the same dose it stimulates 5-HT1A receptors

Compound: C=CCN1CC[C@@H]2c3c(cccc3OC)CC[C@@H]21 (racemic) [Example 4 Compound #2, cis-(+-)-2,3,3a,4,5,9b-hexahydro-9-methoxy-3-(2-propenyl)-1H-benz[e]indole hydrochloride]
IC50 [5]: 2.8 nM
selectivity for the 5-HT1A receptor (5-HT1A receptor [7]): demonstrates the selectivity for the 5-HT1A receptor
ED50 [6]: 2.3 mg/kg

Compound: CN1CCc2cccc3c2[C@H]1Cc1ccc(O)c(O)c1-3 [apomorphine]
activation of dopamine autoreceptors and post synaptic dopamine receptors (dopamine autoreceptors): able to activate the dopamine autoreceptors as well as the post synaptic dopamine receptors
anti-psychotic and anti-dyskinetic effects [8]: anti-psychotic and anti-dyskinetic effects in man

Compound: C=CCN1CC[C@@H]2c3cccc(OC)c3CC[C@@H]21.Cl (racemic) [Example 4 Compound #3, Cis-(+-)-2,3,3a,4,5,9b-hexahydro-6-methoxy-3-(2-propenyl)-1H-benz[e]indole hydrochloride]
IC50 [5]: 628 nM
dopamine activity (dopamine; hydrochloride): good selective dopamine activity
dopamine activity (dopamine; listed as Example 4, compound #3, hydrochloride): selective dopamine antagonist activity
5-HT1A agonist activity (5-HT1A receptor [9]): low 5-HT1A agonist activity
ED50 [6]: 30 mg/kg

Compound: COc1cccc2c1CCC(NC1CC1)C2C (stereo not drawn) [1-methyl-2-(cyclopropylamino)-5-methoxytetralin]
local anesthetic activity [10]: local anesthetic activity

— patent US5491236A, “(1,2N) and (3,2N)-carbocyclic-2-amino tetralin derivatives” (The Upjohn Company, priority 1991, dated 1996)
